From ChEMBL document CHEMBL1154655, “Curcumin analog cytotoxicity against breast cancer cells: exploitation of a redox-dependent mechanism” (Bioorg Med Chem Lett, 2009)

What was measured:
A549 = test: Inhibition of NF-kappaB nuclear translocation in human A549 cells; assay type: functional, cell-based
MDA-MB-435 = test: Cytotoxicity against human MDA-MB-435 cells; assay type: functional, cell-based

Row | Compound | IC50 (A549) [µM] | IC50 (MDA-MB-435) [nM]
1 | COc1cc(/C=C/C(=O)CC(=O)/C=C/c2ccc(O)c(OC)c2)ccc1O [CURCUMIN] | 13 | 
2 | O=C1/C(=C/c2ccccc2F)CNC/C1=C\c1ccccc1F | 1.3 | 1500
3 | O=C1/C(=C/c2ccccn2)CNC/C1=C\c1ccccn1 |  | 1000
